From US20250084039A1, “4-SUBSTITUTED AMINOISOQUINOLINE DERIVATIVES” (Purdue Research Foundation, priority 2016, published 2025) come the findings set out here.

One data set deals with Kasumi-1. The data set can be described thus: Selectivity, proliferation IC50. It is filed as cell-based. The conditions noted are these: Homo sapiens, read-out: IC50 Kasumi-1 (non-FLT3 AML line). How it is done: (§1) Cell lines were seeded into 96-well plates the afternoon prior to treatment. Approximately 18 hours later, compounds were diluted in dimethyl sulfoxide (DMSO) and added to cells. Plates were incubated for 72 hours and cells viability determined with CellTiter-Blue Cell Viability Assay (Promega, Madison, WI). Plates were read after 4 additional hours of incubation at 37° C. using plate reader (Bio-Tek, Winooski. VT). Data was analyzed and graphed using GraphPad Prism Software (Graphpad. La Jolla, CA).

The subject of the next data set is THP1. The data set can be described thus: Selectivity, proliferation IC50. It is filed as cell-based. The note with it: Homo sapiens, THP-1; read-out: IC50 THP1 (non-FLT3-driven AML line). How it is done:
as §1

Another data set has as its system HL60. As to the kind of experiment: Selectivity, proliferation IC50. It is filed as cell-based. The note with it: Homo sapiens, HL-60; read-out: IC50 HL60 (acute promyelocytic leukemia). How it is done:
as §1

Data set [1] relates to MV4-11. The data set can be described thus: In vivo efficacy, NSG mice injected with MV4-11. The note with it: 25 mg/kg, three times per week, NSG mice with MV4-11. As to the method:
Method: Six week old female NSG mice were injected intravenously with 1×10^6 logarithmically growing MV4-11 cells expressing luciferase (MV4-11). Luciferase expressing leukemia cells were imaged using the IVIS Xenogen system (Perkin Elmer, Waltham MA). On day of imaging, mice are injected IP with 150 mg/kg luciferin (Perkin Elmer, Waltham, MA), anaesthetized and then placed in imaging chamber. Maximal luminescence is recorded and then averaged among each treatment group. Ten days post cell injection, mice were imaged and then sorted into groups so that leukemic burden was similar and dosing started. Mice were dosed either with vehicle (10% DMSO/10% Tween 20/80% saline) or 25 mg/kg of compounds three times per week for the duration of the experiment. Mice were weighed and observed five days per week and imaged once per week.

Data set [2] in a line: Liver microsomal stability assay. It is filed as in vitro ADME, mouse. The conditions noted are these: compared to the other analogs.
The test system of data set [3] is MV4-11. As to the kind of experiment: Proliferation inhibition screen at 100 nM. The class given is cell-based. The note with it: 100 nM compound, FIG. 10. As to the method: To determine inhibition at 100 nM or […], 96-well plates were seeded the afternoon before treatment. Plates were then treated with compound diluted in dimethyl sulfoxide (DMSO) as well as a DMSO control the following day for 72 hours. After this time the plates were then treated with 10 μL of CellTiter-Blue Cell Viability Assay (Promega, Madison, WI) for 4 hours. Then the plates were read on a plate reader (Bio-Tek, Winooski, VT). Data was analyzed on Excel as a percent of the DMSO vehicle.
From these cell proliferation studies, MV4-11 appeared to be more sensitive to the compounds than the other cell lines (Table 6A). […] To identify group of compounds potently inhibiting cancer cell proliferation, a lower concentration of compounds (100 nM) were used to screen against MV4-11 (FIG. 10). From these experiments, potent amide compounds A7, A10, A15, A16, A18, A20, B15 and D30 (as indicated by ***, FIG. 10) were selected. […] Typically amides that contain basic amines are included in compound libraries to improve aqueous solubility but it appears that the presence of a basic amine in the side chain of the compounds also facilitated the actual inhibition of MV4-11 proliferation.

Another data set concerns the target CDK9 (Homo sapiens (Human), UniProt P50750). As to the kind of experiment: DiscoverX Kd Elect binding. How it is done:
(§2) HCK is expressed more in human primary leukemic stem cells than in human normal hematopoietic stem cells. […] Other protein kinases such as SYK, BRAF, p38 (p38MAPK), PDGFRα/β, FGFR1, RET, FLT4, Tie2 have also been linked to leukemia. […] Thus, it was tested if HSN286 and analogs were also targeting kinases that play critical roles in AML. […] (Table 9). The inhibition of the Src-kinase family could be important clinically because these kinases are downstream of FLT3. In the event of FLT3 mutation, the inhibition of the Src-family kinases could still lead to proliferation inhibition.

A further data set addresses CDK6 (Homo sapiens (Human), UniProt Q00534). As to the kind of experiment: DiscoverX Kd Elect binding. How it is done:
as §2

Data set [4] concerns MV4-11. The data set can be described thus: Activity against AML cell line MV4-11 (CellTiter-Blue, 72 h). The class given is cell-based. The essentials: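 Suspension cells seeded at 4000 per well, left overnight, then exposed to compound from 10 nM to 100 μM for 72 h. Viability by CellTiter-Blue resazurin fluorescence after 4 h (Ex 560, Em 590); IC50 from concentration-response.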

Another data set concerns the target FLT3 (Homo sapiens (Human), UniProt P36888). As to the kind of experiment: Inhibition of kinase enzymatic activity (IC50). The class given is biochemical. The note with it: in vitro.
For another data set, the target named is FLT3 ITD (Homo sapiens, UniProt P36888).

Read-outs that look alike come from different tables or passages of the source.

Sequence of FLT3 ITD (P36888 whole entry, looked up, change not shown): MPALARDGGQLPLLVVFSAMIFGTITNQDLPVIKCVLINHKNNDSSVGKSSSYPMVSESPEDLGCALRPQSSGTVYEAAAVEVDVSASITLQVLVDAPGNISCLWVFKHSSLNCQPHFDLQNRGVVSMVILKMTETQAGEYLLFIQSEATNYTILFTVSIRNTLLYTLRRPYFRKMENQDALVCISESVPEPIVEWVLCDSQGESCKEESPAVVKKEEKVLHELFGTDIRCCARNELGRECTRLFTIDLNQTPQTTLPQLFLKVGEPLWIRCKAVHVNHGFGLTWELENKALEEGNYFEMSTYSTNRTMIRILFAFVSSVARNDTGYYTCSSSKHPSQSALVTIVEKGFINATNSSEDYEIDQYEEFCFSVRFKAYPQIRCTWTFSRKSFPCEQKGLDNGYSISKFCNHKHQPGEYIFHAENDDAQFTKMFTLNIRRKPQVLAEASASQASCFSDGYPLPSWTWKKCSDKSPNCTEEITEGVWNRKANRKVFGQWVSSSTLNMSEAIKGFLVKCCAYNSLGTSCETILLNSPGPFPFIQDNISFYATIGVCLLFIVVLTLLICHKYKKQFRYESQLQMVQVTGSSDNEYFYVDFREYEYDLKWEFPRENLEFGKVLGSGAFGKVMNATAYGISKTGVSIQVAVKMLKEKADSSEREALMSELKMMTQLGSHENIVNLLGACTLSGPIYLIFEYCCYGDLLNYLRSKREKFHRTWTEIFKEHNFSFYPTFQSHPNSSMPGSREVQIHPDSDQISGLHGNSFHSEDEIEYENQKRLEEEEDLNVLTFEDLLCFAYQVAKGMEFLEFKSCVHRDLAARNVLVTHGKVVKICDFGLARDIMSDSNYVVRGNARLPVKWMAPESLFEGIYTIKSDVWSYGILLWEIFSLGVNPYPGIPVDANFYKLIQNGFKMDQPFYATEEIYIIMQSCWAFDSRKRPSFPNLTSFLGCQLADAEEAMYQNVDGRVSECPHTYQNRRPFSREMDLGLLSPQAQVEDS
Sequence of CDK9 (P50750 whole entry): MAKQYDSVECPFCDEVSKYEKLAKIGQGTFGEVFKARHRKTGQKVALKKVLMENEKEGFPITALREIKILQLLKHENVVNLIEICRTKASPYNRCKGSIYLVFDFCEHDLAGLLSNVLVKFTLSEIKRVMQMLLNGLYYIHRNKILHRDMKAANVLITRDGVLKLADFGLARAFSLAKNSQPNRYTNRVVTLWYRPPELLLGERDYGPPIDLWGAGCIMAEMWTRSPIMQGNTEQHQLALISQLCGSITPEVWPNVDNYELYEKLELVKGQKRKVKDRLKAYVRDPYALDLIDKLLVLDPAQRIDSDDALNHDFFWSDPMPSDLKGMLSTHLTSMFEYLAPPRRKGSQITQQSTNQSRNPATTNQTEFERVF
Sequence of CDK6 (Q00534 whole entry): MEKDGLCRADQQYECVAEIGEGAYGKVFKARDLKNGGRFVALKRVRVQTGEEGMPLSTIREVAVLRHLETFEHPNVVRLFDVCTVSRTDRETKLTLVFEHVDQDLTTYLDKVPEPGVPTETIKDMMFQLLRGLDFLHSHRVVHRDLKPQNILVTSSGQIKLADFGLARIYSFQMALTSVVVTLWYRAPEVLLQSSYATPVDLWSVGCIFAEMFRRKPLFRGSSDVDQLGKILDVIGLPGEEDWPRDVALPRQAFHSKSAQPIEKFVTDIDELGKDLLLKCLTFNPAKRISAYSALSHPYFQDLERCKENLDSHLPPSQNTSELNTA
Sequence of FLT3 (P36888 27-993): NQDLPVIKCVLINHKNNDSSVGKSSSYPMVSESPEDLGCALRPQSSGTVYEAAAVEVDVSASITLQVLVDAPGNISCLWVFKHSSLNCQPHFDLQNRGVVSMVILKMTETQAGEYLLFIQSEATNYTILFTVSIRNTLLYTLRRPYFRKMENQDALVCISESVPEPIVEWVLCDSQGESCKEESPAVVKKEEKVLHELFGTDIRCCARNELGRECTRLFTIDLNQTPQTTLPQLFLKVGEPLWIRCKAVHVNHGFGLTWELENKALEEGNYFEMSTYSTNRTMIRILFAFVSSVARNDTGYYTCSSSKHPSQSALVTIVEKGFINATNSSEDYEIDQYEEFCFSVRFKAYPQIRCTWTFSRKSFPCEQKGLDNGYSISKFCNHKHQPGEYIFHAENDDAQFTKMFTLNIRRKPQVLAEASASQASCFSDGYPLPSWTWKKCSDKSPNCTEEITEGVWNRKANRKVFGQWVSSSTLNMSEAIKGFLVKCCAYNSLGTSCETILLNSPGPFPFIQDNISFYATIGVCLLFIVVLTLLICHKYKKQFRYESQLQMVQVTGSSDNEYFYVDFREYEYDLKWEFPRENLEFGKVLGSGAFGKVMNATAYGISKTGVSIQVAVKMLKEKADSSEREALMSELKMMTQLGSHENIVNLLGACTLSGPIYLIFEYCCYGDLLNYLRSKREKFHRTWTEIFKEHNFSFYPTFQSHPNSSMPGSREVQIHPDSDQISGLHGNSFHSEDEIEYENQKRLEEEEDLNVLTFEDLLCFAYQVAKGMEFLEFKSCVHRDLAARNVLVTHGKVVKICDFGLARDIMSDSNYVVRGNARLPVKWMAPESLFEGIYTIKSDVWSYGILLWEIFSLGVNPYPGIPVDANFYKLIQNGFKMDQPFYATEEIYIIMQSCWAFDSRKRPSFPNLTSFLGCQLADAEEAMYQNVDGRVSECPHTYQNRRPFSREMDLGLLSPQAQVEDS

As to `Cc1ccc(C(=O)Nc2ccc(CN3CCN(C)CC3)c(C(F)(F)F)c2)cc1C#Cc1c(N)ncc2ccc(Cl)cc12` [HSN286], the figures for the IC50 with Kasumi-1, in the data set on THP1 and with HL60 were greater than 10000 nM, 2320 nM and 2160 nM, respectively. Further, in the data set with MV4-11 [1], the “in-vivo efficacy (survival)” value was “not efficacious”. The “stability in mouse liver microsomes” value in [2] is reported as “preformed much better”. Also, the “inhibition of MV4-11 proliferation in words” value with MV4-11 [3] is listed as “potent”. For the same compound, the figures for the Kd at CDK9 and on CDK6 were 2300 nM and 28000 nM, respectively.

For the compound `CN(C)CC(O)CNC(=O)c1ccc(C#Cc2c(N)ncc3ccc(Cl)cc23)cc1` (stereo not shown) [HSM1702], the IC50 amounted to 0.003 µM in the data set on MV4-11 [4] (72 h, read-out: IC50 against MV4-11/uM); 0.003 µM in the data set on MV4-11 [4] (FIG. 1, read-out: anticancer activities (IC50) against MV4-11); 0.0055 ± 0.0013 µM in the data set on MV4-11 [4] (Table 2, read-out: IC50 (nM) against MV4-11 (AML cell line)).

For `Cc1ccc(C(=O)Nc2ccc(CN3CCN(C)CC3)c(C(F)(F)F)c2)cc1C#Cc1cnc(N)c2ncccc12` [HSN356, 3-((8-amino-1,7-naphthyridin-5-yl)ethynyl)-4-methyl-N-(4-((4-methylpiperazin-1-yl)methyl)-3-(trifluoromethyl)phenyl)benzamide], at FLT3, the “IC50 FLT3 enzymatic inhibition” value is listed as “single digit”. In addition, the “IC50 FLT3 ITD enzymatic inhibition” value against FLT3 ITD was “single digit”.
